Patent publication US10925283B2, “Microbiocidal phenylamidine derivatives” (SYNGENTA PARTICIPATIONS AG, priority 2016, dated 2021)

Legend:
Assay type in all cases: in vivo
[1] = system: Puccinia recondita f. sp. tritici; assay: Puccinia recondita f. sp. tritici / wheat / leaf disc preventative (brown rust); conditions: foliar, wheat leaf segments cv. Kanzler, inoculated 1 day after application, assessed 7-9 days after application, read-out: control of Puccinia recondita f. sp. tritici (percent disease control compared to untreated)
Procedure: Puccinia recondita f. Sp. Tritici/Wheat/Leaf Disc Preventative (Brown Rust) Wheat leaf segments cv. Kanzler are placed on agar in multiwell plates (24-well format) and sprayed with the formulated test compound diluted in water. The leaf disks are inoculated with a spore suspension of the fungus 1 day after application. The inoculated leaf segments are incubated at 19° C. and 75% rh under a light regime of 12 h light/12 h darkness in a climate cabinet and the activity of a compound is assessed as percent disease control compared to untreated when an appropriate level of disease damage appears in untreated check leaf segments (7-9 days after application).

[2] = system: Puccinia recondita f. sp. tritici; assay: Puccinia recondita f. sp. tritici / wheat / leaf disc curative (brown rust); conditions: foliar, wheat leaf segments cv. Kanzler, compound applied 1 day after inoculation, assessed 6-8 days after application, read-out: control of Puccinia recondita f. sp. tritici (percent disease control compared to untreated)
Procedure: Puccinia recondita f. Sp. Tritici/Wheat/Leaf Disc Curative (Brown Rust) Wheat leaf segments cv. Kanzler are placed on agar in multiwell plates (24-well format). The leaf segments are inoculated with a spore suspension of the fungus. Plates are stored in darkness at 19° C. and 75% rh. The formulated test compound diluted in water is applied 1 day after inoculation. The leaf segments are incubated at 19° C. and 75% rh under a light regime of 12 h light/12 h darkness in a climate cabinet and the activity of a compound is assessed as percent disease control compared to untreated when an appropriate level of disease damage appears in untreated check leaf segments (6-8 days after application).

[3] = system: Blumeria graminis f. sp. tritici (Erysiphe graminis f. sp. tritici); assay: Blumeria graminis f. sp. tritici / wheat / leaf disc preventative (powdery mildew on wheat); conditions: foliar, wheat leaf segments cv. Kanzler, inoculated 1 day after application, assessed 6-8 days after application, read-out: control of Blumeria graminis f. sp. tritici (percent disease control compared to untreated)
Procedure: Blumeria graminis f. sp. tritici (Erysiphe graminis f. sp. tritici)/Wheat/Leaf Disc Preventative (Powdery Mildew on Wheat) Wheat leaf segments cv. Kanzler are placed on agar in a multiwell plate (24-well format) and sprayed with the formulated test compound diluted in water. The leaf disks are inoculated by shaking powdery mildew infected plants above the test plates 1 day after application. The inoculated leaf disks are incubated at 20° C. and 60% rh under a light regime of 24 h darkness followed by 12 h light/12 h darkness in a climate chamber and the activity of a compound is assessed as percent disease control compared to untreated when an appropriate level of disease damage appears on untreated check leaf segments (6-8 days after application).

Structure (SMILES) | pest or weed control at 200 ppm [1] | pest or weed control at 200 ppm [2] | pest or weed control at 200 ppm [3]
CCN(C)/C=N/c1cc(OC)c(C(O)(COCC(C)(C)COC(C)(C)C)C(F)(F)F)cc1C (stereo not drawn) [E.015, N′-[4-[1-[(3-tert-butoxy-2,2-dimethyl-propoxy)methyl]-2,2,2-trifluoro-1-hydroxy-ethyl]-5-methoxy-2-methyl-phenyl]-N-ethyl-N-methyl-formamidine] | ≥ 80% | ≥ 80% | ≥ 80%
CCN(C)/C=N/c1cc(OC)c(C(O)(COC2CCc3ccccc32)C(F)(F)F)cc1C (stereo not drawn) [E.005, N-ethyl-N′-[5-methoxy-2-methyl-4-[2,2,2-trifluoro-1-hydroxy-1-(indan-1-yloxymethyl)ethyl]phenyl]-N-methyl-formamidine] | ≥ 80% | ≥ 80% | ≥ 80%
CCO/N=C(/CC(O)(c1cc(C)c(/N=C/N(C)CC)cc1OC)C(F)(F)F)c1ccccc1 (stereo not drawn) [E.058, N′-[4-[(3Z)-3-ethoxyimino-1-hydroxy-3-phenyl-1-(trifluoromethyl)propyl]-5-methoxy-2-methyl-phenyl]-N-ethyl-N-methyl-formamidine] | ≥ 80% | ≥ 80% | ≥ 80%
CCN(C)/C=N/c1cc(OC)c(C(O)(CS(=O)(=O)CC)C(F)(F)F)cc1C (stereo not drawn) [E.067, N-ethyl-N′-[4-[1-(ethylsulfonylmethyl)-2,2,2-trifluoro-1-hydroxy-ethyl]-5-methoxy-2-methyl-phenyl]-N-methyl-formamidine] | ≥ 80% | ≥ 80% | ≥ 80%
CCN(C)/C=N/c1cc(OC)c(C(O)(COCc2ccco2)C(F)(F)F)cc1C (stereo not drawn) [E.023, N-ethyl-N′-[5-methoxy-2-methyl-4-[2,2,2-trifluoro-1-(2-furylmethoxymethyl)-1-hydroxy-ethyl]phenyl]-N-methyl-formamidine] | ≥ 80% | ≥ 80% | ≥ 80%
CCN(C)/C=N/c1cc(OC)c(C(O)(COCC2(c3ccc(Cl)cc3)CC2)C(F)(F)F)cc1C (stereo not drawn) [E.007, N′-[4-[1-[[1-(4-chlorophenyl)cyclopropyl]methoxymethyl]-2,2,2-triﬂuoro-1-hydroxy-ethyl]-5-methoxy-2-methyl-phenyl]-N-ethyl-N-methyl-formamidine] | ≥ 80% | ≥ 80% | ≥ 80%
CCC1OCC(C)(COCC(O)(c2cc(C)c(/N=C/N(C)CC)cc2OC)C(F)(F)F)CO1 (stereo not drawn) [E.017, N-ethyl-N′-[4-[1-[(2-ethyl-5-methyl-1,3-dioxan-5-yl)methoxymethyl]-2,2,2-trifluoro-1-hydroxy-ethyl]-5-methoxy-2-methyl-phenyl]-N-methyl-formamidine] | ≥ 80% | ≥ 80% | ≥ 80%
CCN(C)/C=N/c1cc(OC)c(C(O)(C2CCS(=O)(=O)CC2)C(F)(F)F)cc1C (stereo not drawn) [E.076, N′-[4-[1-(1,1-dioxothian-4-yl)-2,2,2-trifluoro-1-hydroxy-ethyl]-5-methoxy-2-methyl-phenyl]-N-ethyl-N-methyl-formamidine] |  | ≥ 80% | 
CCN(C)/C=N/c1cc(OC)c(C(O)(CSC(C)C)C(F)(F)F)cc1C (stereo not drawn) [E.071, N-ethyl-N′-[5-methoxy-2-methyl-4-[2,2,2-trifluoro-1-hydroxy-1-(isopropylsulfanylmethyl)ethyl]phenyl]-N-methyl-formamidine] | ≥ 80% |  | ≥ 80%
CCN(C)/C=N/c1cc(OC)c(C(O)(COCC2(CC)COC2)C(F)(F)F)cc1C (stereo not drawn) [E.034, N-ethyl-N′-[4-[1-[(3-ethyloxetan-3-yl)methoxymethyl]-2,2,2-trifluoro-1-hydroxy-ethyl]-5-methoxy-2-methyl-phenyl]-N-methyl-formamidine] | ≥ 80% | ≥ 80% | ≥ 80%
CCN(C)/C=N/c1cc(OC)c(C(O)(COCCON=C(C)C)C(F)(F)F)cc1C (stereo not drawn) [E.016, N-ethyl-N′-[5-methoxy-2-methyl-4-[2,2,2-trifluoro-1-hydroxy-1-[2-(isopropylideneamino)oxyethoxymethyl]ethyl]phenyl]-N-methyl-formamidine] | ≥ 80% | ≥ 80% | ≥ 80%
CCN(C)/C=N/c1cc(OC)c(C(O)(COCCc2ccc(F)cc2)C(F)(F)F)cc1C (stereo not drawn) [E.026, N-ethyl-N′-[5-methoxy-2-methyl-4-[2,2,2-trifluoro-1-[2-(4-fluorophenyl)ethoxymethyl]-1-hydroxy-ethyl]phenyl]-N-methyl-formamidine] | ≥ 80% | ≥ 80% | ≥ 80%
CCCSCC(O)(c1cc(C)c(/N=C/N(C)CC)cc1OC)C(F)(F)F (stereo not drawn) [E.062, N-ethyl-N′-[5-methoxy-2-methyl-4-[2,2,2-trifluoro-1-hydroxy-1-(propylsulfanylmethyl)ethyl]phenyl]-N-methyl-formamidine] |  | ≥ 80% | ≥ 80%
CCC1CCC(OCC(O)(c2cc(C)c(/N=C/N(C)CC)cc2OC)C(F)(F)F)CC1 (stereo not drawn) [E.033, N-ethyl-N′-[4-[1-[(4-ethylcyclohexoxy)methyl]-2,2,2-trifluoro-1-hydroxy-ethyl]-5-methoxy-2-methyl-phenyl]-N-methyl-formamidine] | ≥ 80% | ≥ 80% | ≥ 80%
CCN(C)/C=N/c1cc(OC)c(C(O)(COCCC(C)(C)OC)C(F)(F)F)cc1C (stereo not drawn) [E.019, N-ethyl-N′-[5-methoxy-2-methyl-4-[2,2,2-trifluoro-1-hydroxy-1-[(3-methoxy-3-methyl-butoxy)methyl]ethyl]phenyl]-N-methyl-formamidine] | ≥ 80% | ≥ 80% | ≥ 80%
C=CCOCCOCC(O)(c1cc(C)c(/N=C/N(C)CC)cc1OC)C(F)(F)F (stereo not drawn) [E.030, N′-[4-[1-(2-allyloxyethoxymethyl)-2,2,2-trifluoro-1-hydroxy-ethyl]-5-methoxy-2-methyl-phenyl]-N-ethyl-N-methyl-formamidine] | ≥ 80% | ≥ 80% | ≥ 80%
CCN(C)/C=N/c1cc(OC)c(C(O)(COCc2ccc3ccccc3c2)C(F)(F)F)cc1C (stereo not drawn) [E.009, N-ethyl-N′-[5-methoxy-2-methyl-4-[2,2,2-trifluoro-1-hydroxy-1-(2-naphthylmethoxymethyl)ethyl]phenyl]-N-methyl-formamidine] | ≥ 80% | ≥ 80% | ≥ 80%
CCN(C)/C=N/c1cc(OC)c(C(O)(COCc2ccccc2C)C(F)(F)F)cc1C (stereo not drawn) [E.029, N-ethyl-N′-[5-methoxy-2-methyl-4-[2,2,2-trifluoro-1-hydroxy-1-(o-tolylmethoxymethyl)ethyl]phenyl]-N-methyl-formamidine] | ≥ 80% | ≥ 80% | ≥ 80%
CCN(C)/C=N/c1cc(OC)c(C(O)(COC2CCC2)C(F)(F)F)cc1C (stereo not drawn) [E.025, N′-[4-[1-(cyclobutoxymethyl)-2,2,2-trifluoro-1-hydroxy-ethyl]-5-methoxy-2-methyl-phenyl]-N-ethyl-N-methyl-formamidine] | ≥ 80% | ≥ 80% | ≥ 80%
CCCC1OCC(C)(COCC(O)(c2cc(C)c(/N=C/N(C)CC)cc2OC)C(F)(F)F)CO1 (stereo not drawn) [E.001, N-ethyl-N′-[5-methoxy-2-methyl-4-[2,2,2-trifluoro-1-hydroxy-1-[(5-methyl-2-propyl-1,3-dioxan-5-yl)methoxymethyl]ethyl]phenyl]-N-methyl-formamidine] | ≥ 80% | ≥ 80% | ≥ 80%
CCN(C)/C=N/c1cc(OC)c(C(O)(CSC)C(F)(F)F)cc1C (stereo not drawn) [E.070, N-ethyl-N′-[5-methoxy-2-methyl-4-[2,2,2-trifluoro-1-hydroxy-1-(methylsulfanylmethyl)ethyl]phenyl]-N-methyl-formamidine] | ≥ 80% |  | ≥ 80%
CCN(C)/C=N/c1cc(OC)c(C(O)(COCCc2ccc(OC)c(OC)c2)C(F)(F)F)cc1C (stereo not drawn) [E.022, N′-[4-[1-[2-(3,4-dimethoxyphenyl)ethoxymethyl]-2,2,2-trifluoro-1-hydroxy-ethyl]-5-methoxy-2-methyl-phenyl]-N-ethyl-N-methyl-formamidine] |  | ≥ 80% | ≥ 80%
